Data taken from ChEMBL document CHEMBL3745696, “Synthesis and cytotoxic activity of novel hexahydropyrrolo[2,3-b]indole imidazolium salts” (Bioorg Med Chem Lett, 2016).

Key:
Type in all cases: functional, cell-based
MCF7 = test: Cytotoxicity against human MCF7 cells by MTT assay
A549 = test: Cytotoxicity against human A549 cells by MTT assay
SW480 = test: Cytotoxicity against human SW480 cells by MTT assay
[1] = Cytotoxicity against human SMMC7721 cells by MTT assay; details: SMMC-7721
[2] = Cytotoxicity against human HL60 cells by MTT assay; details: HL-60

SMILES	IC50 (MCF7)	IC50 (A549)	IC50 (SW480)	IC50 [1]	IC50 [2]
COc1ccc(C(=O)C[n+]2c(C)n(CC(=O)N3CCC4(C)c5ccccc5N(Cc5ccccc5)C34)c3ccccc32)cc1 (stereo not given)	6.99 µM	12.5 µM	8.38 µM	8.83 µM	4.18 µM
Cc1n(CC(=O)N2CCC3(C)c4ccccc4N(C)C23)cc[n+]1CC(=O)c1ccccc1 (stereo not given)	> 20 µM	> 20 µM	> 20 µM	> 20 µM	> 20 µM
Cc1cc2ncn(CC(=O)N3CCC4(C)c5ccccc5N(C)C34)c2cc1C (stereo not given)	> 20 µM	> 20 µM	> 20 µM	> 20 µM	> 20 µM
CN1c2ccccc2C2(C)CCN(C(=O)Cn3c[n+](CC(=O)c4ccccc4)c4ccccc43)C12 (stereo not given)	> 20 µM	> 20 µM	> 20 µM	> 20 µM	> 20 µM
COc1ccc(C(=O)C[n+]2cn(CC(=O)N3CCC4(C)c5ccccc5N(Cc5ccccc5)C34)c3cc(C)c(C)cc32)cc1 (stereo not given)	2.35 µM	7.4 µM	1.5 µM	5.07 µM	1.64 µM
Cc1ccc(C[n+]2ccn(CC(=O)N3CCC4(C)c5ccccc5N(Cc5ccccc5)C34)c2C)cc1 (stereo not given)	7.26 µM	> 20 µM	9.71 µM	19.5 µM	0.47 µM
CN1c2ccccc2C2(C)CCN(C(=O)Cn3cc[n+](CC(=O)c4ccccc4)c3)C12 (stereo not given)	> 20 µM	> 20 µM	> 20 µM	> 20 µM	> 20 µM
CN1c2ccccc2C2(C)CCN(C(=O)Cn3c[n+](CC(=O)c4ccc5ccccc5c4)c4ccccc43)C12 (stereo not given)	11 µM	> 20 µM	8.56 µM	> 20 µM	5.98 µM
CC12CCN(C(=O)Cn3c[n+](CC(=O)c4ccccc4)c4ccccc43)C1N(Cc1ccccc1)c1ccccc12 (stereo not given)	8.16 µM	> 20 µM	8.43 µM	14.5 µM	5.72 µM
COc1ccc(C(=O)C[n+]2ccn(CC(=O)N3CCC4(C)c5ccccc5N(C)C34)c2)cc1 (stereo not given)	> 20 µM	> 20 µM	> 20 µM	> 20 µM	> 20 µM
Cc1n(CC(=O)N2CCC3(C)c4ccccc4N(C)C23)cc[n+]1CC(=O)c1ccc(Br)cc1 (stereo not given)	> 20 µM	> 20 µM	> 20 µM	> 20 µM	> 20 µM
CN1c2ccccc2C2(C)CCN(C(=O)Cn3cc[n+](CC(=O)c4ccc(Br)cc4)c3)C12 (stereo not given)	> 20 µM	> 20 µM	> 20 µM	> 20 µM	> 20 µM
COc1ccc(C(=O)C[n+]2ccn(CC(=O)N3CCC4(C)c5ccccc5N(Cc5ccccc5)C34)c2C)cc1 (stereo not given)	10.6 µM	> 20 µM	> 20 µM	> 20 µM	1.3 µM
COc1ccc(C(=O)C[n+]2cn(CC(=O)N3CCC4(C)c5ccccc5N(C)C34)c3ccccc32)cc1 (stereo not given)	> 20 µM	> 20 µM	> 20 µM	> 20 µM	> 20 µM
CN1c2ccccc2C2(C)CCN(C(=O)Cn3c[n+](CC(=O)c4ccc(Br)cc4)c4ccccc43)C12 (stereo not given)	> 20 µM	> 20 µM	> 20 µM	> 20 µM	> 20 µM
CC12CCN(C(=O)Cn3c[n+](Cc4ccc(Br)cc4)c4ccccc43)C1N(Cc1ccccc1)c1ccccc12 (stereo not given)	3.87 µM	7.59 µM	7.43 µM	7.53 µM	1.42 µM
CN1c2ccccc2C2(C)CCN(C(=O)Cn3cc[n+](CC(=O)c4ccc5ccccc5c4)c3)C12 (stereo not given)	> 20 µM	> 20 µM	> 20 µM	> 20 µM	> 20 µM
Cc1n(CC(=O)N2CCC3(C)c4ccccc4N(Cc4ccccc4)C23)c2ccccc2[n+]1CC(=O)c1ccccc1 (stereo not given)	6.35 µM	14.7 µM	8.31 µM	9.28 µM	4.64 µM
CC12CCN(C(=O)Cn3c[n+](CC(=O)c4ccc(Br)cc4)c4ccccc43)C1N(Cc1ccccc1)c1ccccc12 (stereo not given)	8.15 µM	8.07 µM	9.18 µM	8.43 µM	2.93 µM
Cc1n(CC(=O)N2CCC3(C)c4ccccc4N(Cc4ccccc4)C23)cc[n+]1CC(=O)c1ccc2ccccc2c1 (stereo not given)	5.67 µM	11.2 µM	7.78 µM	4.79 µM	2.2 µM
Cc1n(CC(=O)N2CCC3(C)c4ccccc4N(C)C23)c2ccccc2[n+]1CC(=O)c1ccccc1 (stereo not given)	> 20 µM	> 20 µM	> 20 µM	> 20 µM	> 20 µM
CN1c2ccccc2C2(C)CCN(C(=O)Cn3c[n+](Cc4ccccc4Br)c4ccccc43)C12 (stereo not given)	14 µM	> 20 µM	> 20 µM	> 20 µM	5.07 µM
COc1ccc(C(=O)C[n+]2cn(CC(=O)N3CCC4(C)c5ccccc5N(Cc5ccccc5)C34)c3ccccc32)cc1 (stereo not given)	7.83 µM	> 20 µM	8.35 µM	10 µM	5.94 µM

SMILES	IC50 (MCF7)	IC50 (A549)	IC50 (SW480)	IC50 [1]	IC50 [2]
Cc1n(CC(=O)N2CCC3(C)c4ccccc4N(Cc4ccccc4)C23)cc[n+]1CC(=O)c1ccc(Br)cc1 (stereo not given)	> 20 µM	> 20 µM	> 20 µM	> 20 µM	7.75 µM
COc1ccc(C(=O)C[n+]2ccn(CC(=O)N3CCC4(C)c5ccccc5N(C)C34)c2C)cc1 (stereo not given)	> 20 µM	> 20 µM	> 20 µM	> 20 µM	> 20 µM
CC12CCN(C(=O)Cn3c[n+](CC(=O)c4ccc5ccccc5c4)c4ccccc43)C1N(Cc1ccccc1)c1ccccc12 (stereo not given)	5.13 µM	7.4 µM	6.88 µM	7.62 µM	1.64 µM
Cc1cc2c(cc1C)[n+](CC(=O)c1ccccc1)cn2CC(=O)N1CCC2(C)c3ccccc3N(Cc3ccccc3)C12 (stereo not given)	3.51 µM	6.54 µM	7.09 µM	5.78 µM	1.47 µM
Cc1cc2c(cc1C)[n+](Cc1ccc(Br)cc1)cn2CC(=O)N1CCC2(C)c3ccccc3N(Cc3ccccc3)C12 (stereo not given)	1.72 µM	6.37 µM	1.41 µM	3.59 µM	1.29 µM
Cc1cc2c(cc1C)[n+](Cc1ccc3ccccc3c1)cn2CC(=O)N1CCC2(C)c3ccccc3N(Cc3ccccc3)C12 (stereo not given)	1.68 µM	4.8 µM	1.76 µM	2.27 µM	1.21 µM
Cc1ccc(C[n+]2cn(CC(=O)N3CCC4(C)c5ccccc5N(Cc5ccccc5)C34)c3cc(C)c(C)cc32)cc1 (stereo not given)	1.86 µM	4.84 µM	1.77 µM	1.74 µM	1.23 µM
Cc1n(CC(=O)N2CCC3(C)c4ccccc4N(Cc4ccccc4)C23)c2ccccc2[n+]1CC(=O)c1ccc(Br)cc1 (stereo not given)	7.37 µM	9.87 µM	8.86 µM	5.99 µM	4.25 µM
Cc1n(CC(=O)N2CCC3(C)c4ccccc4N(C)C23)cc[n+]1Cc1ccc(Br)cc1 (stereo not given)	> 20 µM	> 20 µM	> 20 µM	> 20 µM	> 20 µM
CC12CCN(C(=O)Cn3c[n+](Cc4ccccc4Br)c4ccccc43)C1N(Cc1ccccc1)c1ccccc12 (stereo not given)	2.23 µM	6.76 µM	6.35 µM	4.69 µM	1.21 µM
Cc1ccc(C[n+]2c(C)n(CC(=O)N3CCC4(C)c5ccccc5N(Cc5ccccc5)C34)c3ccccc32)cc1 (stereo not given)	1.98 µM	6.63 µM	1.62 µM	2.97 µM	1.25 µM
Cc1n(CC(=O)N2CCC3(C)c4ccccc4N(Cc4ccccc4)C23)cc[n+]1CC(=O)c1ccccc1 (stereo not given)	> 20 µM	> 20 µM	> 20 µM	> 20 µM	> 20 µM
Cc1n(CC(=O)N2CCC3(C)c4ccccc4N(C)C23)cc[n+]1CC(=O)c1ccc2ccccc2c1 (stereo not given)	> 20 µM	> 20 µM	> 20 µM	> 20 µM	> 20 µM
CN1c2ccccc2C2(C)CCN(C(=O)Cn3c[n+](Cc4ccc(Br)cc4)c4ccccc43)C12 (stereo not given)	8.93 µM	> 20 µM	> 20 µM	> 20 µM	6.96 µM
CN1c2ccccc2C2(C)CCN(C(=O)Cn3c[n+](Cc4ccc5ccccc5c4)c4ccccc43)C12 (stereo not given)	6.86 µM	14.1 µM	7.95 µM	7.45 µM	2.8 µM
Cc1n(CC(=O)N2CCC3(C)c4ccccc4N(Cc4ccccc4)C23)c2ccccc2[n+]1Cc1ccccc1Br (stereo not given)	2.5 µM	7.34 µM	4.62 µM	2.27 µM	1.33 µM
Cc1ccc(C[n+]2cn(CC(=O)N3CCC4(C)c5ccccc5N(C)C34)c3ccccc32)cc1 (stereo not given)	9.47 µM	> 20 µM	> 20 µM	> 20 µM	5.13 µM
Cc1cc2c(cc1C)[n+](CC(=O)c1ccc(Br)cc1)cn2CC(=O)N1CCC2(C)c3ccccc3N(Cc3ccccc3)C12 (stereo not given)	2.78 µM	8.01 µM	1.68 µM	6.22 µM	1.55 µM
Cc1ccc(C[n+]2ccn(CC(=O)N3CCC4(C)c5ccccc5N(C)C34)c2C)cc1 (stereo not given)	> 20 µM	> 20 µM	> 20 µM	> 20 µM	> 20 µM
Cc1n(CC(=O)N2CCC3(C)c4ccccc4N(Cc4ccccc4)C23)c2ccccc2[n+]1Cc1ccc(Br)cc1 (stereo not given)	2.4 µM	7.91 µM	6.11 µM	5.1 µM	1.35 µM
Cc1ccc(C[n+]2cn(CC(=O)N3CCC4(C)c5ccccc5N(Cc5ccccc5)C34)c3ccccc32)cc1 (stereo not given)	2.72 µM	6.23 µM	6.57 µM	4.98 µM	1.2 µM
CN1c2ccccc2C2(C)CCN(C(=O)Cn3cc[n+](Cc4ccc(Br)cc4)c3)C12 (stereo not given)	> 20 µM	> 20 µM	> 20 µM	> 20 µM	> 20 µM
